T/C data for 22 compounds are collected here from PubChem BioAssay AID248 (DTP/NCI, 2004).

“And” between values parts separate entries of the source, which are not always exact repeats. Identical values can stand only once. Toxic doses and inconclusive results are not listed. Square brackets hold non-standard residues; d marks the D form. Peptide text beside a SMILES is read from it. * marks the point of attachment. ξ: configuration not given here. Cbz = O=C(OCc1ccccc1)*; ξI = CCC(C)C(N)C(=O)O

The test deals with L1210 leukemia ip in BDF1 mice, survival T/C. Kind of test: NCI In Vivo Anticancer Drug Screen. Data for tumor model L1210 Leukemia (intraperitoneal) in B6D2F1 (BDF1) mice. As to conditions: endpoint: mean survival time, higher = longer survival. Summed up: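 Tumor cells were implanted, animals were treated, and survival was followed. The result divides the treated measurement by the vehicle-control measurement.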

Where [1] appears, read: dose: 100.0 mg/kg/injection, schedule: Q04DX003 (ip), vehicle: saline with Tween-80.
[2] abbreviates: dose: 200.0 mg/kg/injection, schedule: Q04DX003 (ip), vehicle: saline with Tween-80.
Where [3] appears, read: dose: 400.0 mg/kg/injection, schedule: Q04DX003 (ip), vehicle: saline with Tween-80.
[4] abbreviates: dose: 100.0 mg/kg/injection, schedule: Q01DX001 (ip), vehicle: saline.
Where [5] appears, read: dose: 200.0 mg/kg/injection, schedule: Q01DX001 (ip), vehicle: saline.
Where [6] appears, read: dose: 400.0 mg/kg/injection, schedule: Q01DX001 (ip), vehicle: saline.
Where [7] appears, read: dose: 100.0 mg/kg/injection, schedule: Q01DX009 (ip), vehicle: saline with Tween-80.
The mark [8] stands for this setting: dose: 200.0 mg/kg/injection, schedule: Q01DX009 (ip), vehicle: saline with Tween-80.
The mark [9] stands for this setting: dose: 400.0 mg/kg/injection, schedule: Q01DX009 (ip), vehicle: saline with Tween-80.
[10] abbreviates: dose: 10.0 mg/kg/injection, schedule: Q01DX001 (ip), vehicle: carboxymethylcellulose (CMC).
Setting [11] is: dose: 100.0 mg/kg/injection, schedule: Q01DX009 (ip), vehicle: saline.
The mark [12] stands for this setting: dose: 100.0 mg/kg/injection, schedule: Q04DX003 (ip), vehicle: saline.
Setting [13] is: dose: 200.0 mg/kg/injection, schedule: Q04DX003 (ip), vehicle: saline.
The mark [14] stands for this setting: dose: 400.0 mg/kg/injection, schedule: Q04DX003 (ip), vehicle: saline.
Setting [15] is: dose: 100.0 mg/kg/injection, schedule: Q01DX001 (ip), vehicle: carboxymethylcellulose (CMC).
The mark [16] stands for this setting: dose: 200.0 mg/kg/injection, schedule: Q01DX001 (ip), vehicle: carboxymethylcellulose (CMC).
Setting [17] is: dose: 400.0 mg/kg/injection, schedule: Q01DX001 (ip), vehicle: carboxymethylcellulose (CMC).

`CCC(C)C(NC(=O)CNC(=O)OCc1ccccc1)C(N)=O` (stereo not drawn) (Cbz-Gly-[ξI]-NH2): the T/C under setting [1] was 103 % of control, the T/C under setting [2] was 97 % of control and the T/C under setting [3] is 95 % of control.

Consider `CNC(=O)OCc1c(COC(=O)NC)c(-c2ccc(OC)cc2)n2c1CCC2`, for which the T/C was 109 % of control (dose: 50.0 mg/kg/injection, schedule: Q01DX009 (ip), vehicle: Klucel (hydroxypropylcellulose) (HPC)); 117 % of control (dose: 100.0 mg/kg/injection, schedule: Q01DX009 (ip), vehicle: Klucel (hydroxypropylcellulose) (HPC)); 98 % of control (dose: 200.0 mg/kg/injection, schedule: Q01DX009 (ip), vehicle: Klucel (hydroxypropylcellulose) (HPC)).

As for `COc1ccc(CN2CCCN(Cc3ccc(OC)cc3OC)C2c2ccccc2O)c(OC)c1`, the T/C is 97 % of control (dose: 50.0 mg/kg/injection, schedule: Q01DX001 (ip), vehicle: saline); 92 % of control under setting [4]; 90 % of control under setting [5]; 101 % of control under setting [6].

In the case of `CN(CCc1cn(C2OC(CO)C(O)C(O)C2O)cn1)C(=O)/C=C/c1ccccc1` (stereo not drawn), the T/C (dose: 100.0 mg/kg/injection, schedule: Q01DX005 (ip), vehicle: saline) is 112 % of control.

As for `Cc1c(C)c(NC(=O)/C=C/C(=O)O)c(C)c(C)c1NC(=O)/C=C\C(=O)O`, the T/C is 104 % of control under setting [7], 96 % of control under setting [8] and 102 % of control under setting [9].

Consider `COc1c2c(cc3c1OCO3)[C@@]13CCN(C2)[C@@H]1CC=C[C@H]3O`, for which the T/C is 105 % of control (dose: 5.0 mg/kg/injection, schedule: Q01DX001 (ip), vehicle: carboxymethylcellulose (CMC)) and 105 % of control under setting [10].

For `CCCN=C(N)c1ccc(NC(=O)c2ccc(C(=O)Nc3ccc(C(N)=NCCC)cc3)cc2)cc1`, the T/C (dose: 0.16 mg/kg/injection, schedule: Q01DX Z (ip), vehicle: carboxymethylcellulose (CMC)) was 105 % of control; the T/C (dose: 0.31 mg/kg/injection, schedule: Q01DX Z (ip), vehicle: carboxymethylcellulose (CMC)) is 113 % of control; the T/C (dose: 1.25 mg/kg/injection, schedule: Q01DX Z (ip), vehicle: carboxymethylcellulose (CMC)) is 211 % of control and 257 % of control; the T/C (dose: 2.5 mg/kg/injection, schedule: Q01DX Z (ip), vehicle: carboxymethylcellulose (CMC)) is 190 % of control; the T/C (dose: 3.0 mg/kg/injection, schedule: Q01DX001 (ip), vehicle: carboxymethylcellulose (CMC)) is 114 % of control; the T/C under setting [10] was 169 % of control. The T/C is, setting by setting: (dose: 10.0 mg/kg/injection, schedule: Q01DX001 (ip), vehicle: other) 157 % of control; (dose: 10.0 mg/kg/injection, schedule: Q01DX Z (ip), vehicle: carboxymethylcellulose (CMC)) 113 % of control; (dose: 15.0 mg/kg/injection, schedule: Q01DX001 (ip), vehicle: carboxymethylcellulose (CMC)) 176 % of control and 180 % of control; (dose: 15.0 mg/kg/injection, schedule: Q01DX001 (ip), vehicle: other) 168 % of control and 191 % of control; (dose: 22.5 mg/kg/injection, schedule: Q01DX001 (ip), vehicle: carboxymethylcellulose (CMC)) 268 % of control; (dose: 22.5 mg/kg/injection, schedule: Q01DX001 (ip), vehicle: other) 234 % of control. For the same compound, the T/C is 257 % of control (dose: 33.0 mg/kg/injection, schedule: Q01DX001 (ip), vehicle: carboxymethylcellulose (CMC)); 269 % of control (dose: 33.0 mg/kg/injection, schedule: Q01DX001 (ip), vehicle: other); 104 % of control (dose: 50.0 mg/kg/injection, schedule: Q01DX Z (oral), vehicle: carboxymethylcellulose (CMC)); 107 % of control (dose: 100.0 mg/kg/injection, schedule: Q01DX Z (oral), vehicle: carboxymethylcellulose (CMC)); 103 % of control (dose: 200.0 mg/kg/injection, schedule: Q01DX Z (oral), vehicle: carboxymethylcellulose (CMC)); 98 % of control (dose: 400.0 mg/kg/injection, schedule: Q01DX Z (oral), vehicle: carboxymethylcellulose (CMC)).

For the compound `CCCC(=O)OC(C(=O)OCC)c1ccccc1` (stereo not drawn), the T/C is 98 % of control under setting [7], 106 % of control under setting [8] and 96 % of control under setting [9].

Take `O=C=Nc1ccc(CCc2ccc(N=C=O)cc2)cc1`: the T/C under setting [11] was 88 % of control; the T/C under setting [12] was 93 % of control; the T/C (dose: 200.0 mg/kg/injection, schedule: Q01DX009 (ip), vehicle: saline) was 87 % of control; the T/C under setting [13] is 102 % of control; the T/C under setting [14] is 106 % of control.

As for `Cc1ncsc1CCO`, the T/C (dose: 100.0 mg/kg/injection, schedule: Q01DX001 (ip), vehicle: saline with Tween-80) was 98 % of control; the T/C (dose: 200.0 mg/kg/injection, schedule: Q01DX001 (ip), vehicle: saline with Tween-80) is 102 % of control; the T/C (dose: 400.0 mg/kg/injection, schedule: Q01DX001 (ip), vehicle: saline with Tween-80) was 94 % of control.

In the case of `O=[N+]([O-])c1ccc(Nc2ccccc2)nc1`, the T/C was 106 % of control (dose: 50.0 mg/kg/injection, schedule: Q01DX001 (ip), vehicle: carboxymethylcellulose (CMC)); 106 % of control under setting [15]; 101 % of control under setting [16]; 106 % of control under setting [17].

`O=S(=O)(NO)c1ccccc1`: the T/C under setting [7] was 98 % of control; the T/C under setting [1] is 98 % of control; the T/C under setting [8] is 96 % of control; the T/C under setting [2] was 100 % of control; the T/C under setting [9] is 98 % of control; the T/C under setting [3] is 98 % of control.

For `CC12C(=O)C(C(c3ccccc3)=C1c1ccccc1)C1C(=O)OC(=O)C12` (stereo not drawn), the T/C was 95 % of control (dose: 75.0 mg/kg/injection, schedule: Q01DX001 (ip), vehicle: saline); 86 % of control (dose: 150.0 mg/kg/injection, schedule: Q01DX001 (ip), vehicle: saline); 95 % of control (dose: 300.0 mg/kg/injection, schedule: Q01DX001 (ip), vehicle: saline).

As to `CCOC(=O)Cn1c(=O)c2ccccc2c2ccccc21`, the T/C (dose: 100.0 mg/kg/injection, schedule: Q04DX003 (ip), vehicle: Klucel (hydroxypropylcellulose) (HPC)) was 97 % of control; the T/C (dose: 200.0 mg/kg/injection, schedule: Q04DX003 (ip), vehicle: Klucel (hydroxypropylcellulose) (HPC)) was 104 % of control; the T/C (dose: 400.0 mg/kg/injection, schedule: Q04DX003 (ip), vehicle: Klucel (hydroxypropylcellulose) (HPC)) is 101 % of control.

For the compound `C[CH2][Sn](/[CH]=C/C(C)(C)O)([CH2]C)[CH2]C`, the T/C was 102 % of control (dose: 50.0 mg/kg/injection, schedule: Q01DX009 (ip), vehicle: saline) and 102 % of control under setting [11].

For the compound `CC1C(C(N)=O)C(=O)OC1(C)C` (stereo not drawn), the T/C under setting [4] was 89 % of control, the T/C under setting [5] is 104 % of control and the T/C under setting [6] is 98 % of control.

Regarding `ClC1(Cl)C2CC3C4C=CC(C4)C3C21` (stereo not drawn), the T/C runs as follows: (dose: 100.0 mg/kg/injection, schedule: Q01DX001 (ip), vehicle: Klucel (hydroxypropylcellulose) (HPC)) 108 % of control; (dose: 200.0 mg/kg/injection, schedule: Q01DX001 (ip), vehicle: Klucel (hydroxypropylcellulose) (HPC)) 100 % of control.

Take `CC1CN(C=O)CCN1C=O` (stereo not drawn): the T/C by setting is: under setting [4], 98 % of control; under setting [5], 98 % of control; under setting [6], 101 % of control.

As for `O=C(O)CC(NCc1ccccc1)C(=O)O` (stereo not drawn), the T/C by setting is: under setting [7], 93 % of control; under setting [8], 91 % of control; under setting [9], 93 % of control.

Regarding `COc1ccccc1/C=C(/C)[N+](=O)[O-]`, the T/C under setting [15] is 97 % of control, the T/C under setting [16] was 97 % of control and the T/C under setting [17] was 100 % of control.

Turning to `O=C1/C(=C\c2ccccc2)Cc2cc3c(cc21)OCO3`, the T/C under setting [12] is 105 % of control, the T/C under setting [13] is 113 % of control and the T/C under setting [14] is 102 % of control.

As to `CCCC(C)C(C)CC` (stereo not drawn), the T/C is, setting by setting: (dose: 25.0 mg/kg/injection, schedule: Q01DX001 (ip), vehicle: saline sonified) 107 % of control; (dose: 50.0 mg/kg/injection, schedule: Q01DX001 (ip), vehicle: saline sonified) 98 % of control; (dose: 100.0 mg/kg/injection, schedule: Q01DX001 (ip), vehicle: saline sonified) 93 % of control.
